Consider one compound from US20210128547A1, “AGGRESSIVE LIPID LOWERING THERAPY IN CORONARY ARTERY DISEASE” (priority 2018, published 2021).

The conditions of experiment [1]: 4 mg of pitavastatin; cited from earlier work.
The test system of experiment [2] is patients with stable CAD. The experiment is described as follows: Randomized open-label blinded-endpoint phase 4 trial, pitavastatin 4 mg/day vs 1 mg/day (Example 1). It counts as in vivo, human (Japanese patients). How it is done:
This study was a prospective, multicenter, randomized, open-label, blinded-endpoint, physician-initiated phase 4 trial designed to investigate whether high-dose statin therapy could reduce CV events in patients with stable CAD as compared with low-dose statin therapy. We hypothesized that aggressive lipid lowering treatment with pitavastatin 4 mg/day would reduce the incidence of the composite endpoint comprised of CV death, non-fatal myocardial infarction (MI), non-fatal ischemic stroke, and unstable angina requiring emergency hospitalization. The control group received pitavastatin 1 mg/day.
Men and women aged 20 to 80 years with clinically evident stable CAD and elevated LDL-C were eligible for this study. CAD was defined as 1) previous ACS, such as acute myocardial infarction or unstable angina; 2) a previous coronary revascularization procedure (PCI or coronary artery bypass grafting (“CABG”)); or 3) atherosclerotic CAD detected by coronary artery angiography with at least 75% stenosis in major epicardial coronary arteries (American Heart Association classification). (30) Patients with elevated LDL-C at entry were defined as (1) patients not receiving chronic lipid-lowering therapy with LDL-C≥140 mg/dL, (2) patients with LDL-C≥100 mg/dL and considered by the attending physician to need lipid-lowering therapy, or (3) patients being treated with lipid-lowering therapy.
Exclusion criteria included (1) any planned coronary revascularization procedure, (2) active malignancy, (3) contraindication for pitavastatin (hypersensitivity to pitavastatin, severe liver disease or hepatic dysfunction, concurrent cyclosporine use, or suspected or confirmed pregnancy or current breastfeeding), (4) severe congestive heart failure (ejection fraction <30% or NYHA class ≥3), (5) current hemodialysis, (6) familial hypercholesterolemia, (7) current participation in another clinical trial, (8) current use of any prohibited drug (lipid-lowering drug other than pitavastatin) that could not be discontinued during the study, and (9) any other finding that would make the patient unsuitable for this study in the opinion of the investigators.
Participants were recruited at 733 hospitals in Japan. During screening visits, informed consent and baseline medical history were obtained, and a clinical examination and laboratory testing were performed. Blood samples were collected to determine fasting lipid levels and the patient's standard clinical profile. After discontinuation of all previous lipid-lowering therapies, all eligible patients started receiving treatment with pitavastatin 1 mg/day on an open-label basis for at least 1 month (run-in period). At the end of the run-in period (week 0), those patients with LDL-C levels below 120 mg/dL, measured by a central laboratory using Friedwald's formula, were eligible for randomization. Patients with prior ACS or coronary revascularization could be randomized beyond 3 months after the index event. Randomization was not allowed for patients with poor adherence (less than 50%) for the study drug during the run-in period or for patients with the primary endpoint events during the run-in period.
Patients were randomized in a 1:1 ratio to either pitavastatin 4 mg or pitavastatin 1 mg once daily. Randomized treatment assignment was stratified by 5 factors: 1) institution, 2) prior statin use, 3) age (<65 or ≤65), 4) diabetes, and 5) sex. Patients were to be followed for 3 years, and study visits were scheduled at 6 months for the first visit and every year thereafter. At each visit, information on vital signs, clinical endpoints, adverse events, and concurrent medication was collected. In addition, physical examinations and electrocardiograms were performed and blood specimens were collected at 6 months and every 12 months thereafter for lipid and other laboratory tests. […]

Turning to `O=C(O)C[C@H](O)C[C@H](O)/C=C/c1c(C2CC2)nc2ccccc2c1-c1ccc(F)cc1` [pitavastatin], the “reduction of LDL-C from baseline” value in experiment [1] is reported as 42.9%. Further, in experiment [2] (1 mg and 4 mg pitavastatin groups, FIG. 8), the “incidence rates of individual CV events: death from any cause, myocardial infarction, and coronary revascularization” value is recorded as “positive”. Also, in experiment [2] (patients converted from 1 mg dose to 4 mg dose of pitavastatin, FIG. 2), the LDL-C entry is “statistically significant reduction”. Also, the HDL-C result in experiment [2] (patients converted from 1 mg dose to 4 mg dose of pitavastatin, FIG. 3) is listed as “numerically superior increase”. The TG entry in experiment [2] (patients converted from 1 mg dose to 4 mg dose of pitavastatin, FIG. 4) is “statistically significant reduction”. For the same compound, in experiment [2] (patients converted from 1 mg dose to 4 mg dose of pitavastatin, FIG. 5), the hs-CGP result is reported as “statistically significant reduction”. Further, in experiment [2] (patients converted from 1 mg dose to 4 mg dose of pitavastatin, FIG. 6), the “primary clinical endpoint (composite of CV death, MI, ischemic stroke and UA)” value is given as “statistically significant reduction”. For the same compound, the “secondary clinical endpoint (primary endpoint+coronary revascularization)” value in experiment [2] (patients converted from 1 mg dose to 4 mg dose of pitavastatin, FIG. 7) is “statistically significant reduction”. Moreover, the “effect of LDL-C status (≥95 mg/dL or <95 mg/dL) on incidence rates for the primary endpoint” value in experiment [2] (subgroup analysis, 1 mg vs 4 mg pitavastatin, FIG. 9) is on record as “did not affect the results”.
